Laboratory results taken from PubChem BioAssay (NCI).
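How tested: cells in 96-well plates exposed to compound for 48 hours at five concentrations. Abbreviation: GI50, concentration required for 50% inhibition of growth. TGI denotes the concentration required for complete inhibition of growth.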

Key:
Experiment in all cases: NCI-60 cell line screen, 48 h
[1] = system: NCI-H226 lung
[2] = system: SK-MEL-28 melanoma
[3] = system: HCC-2998 colon
[4] = system: M14 melanoma
[5] = system: SNB-75 CNS
[6] = system: COLO 205 colon
[7] = system: PC-3 prostate
[8] = system: HS 578T breast
[9] = system: T-47D breast
[10] = system: NCI/ADR-RES ovarian

CCN(CC)CCN(C)CC(C)(C)C(=O)/C=C/c1ccccc1
TGI [1]: 32.4 µM | TGI [2]: 30.3 µM | TGI [3]: 27.7 µM | TGI [4]: 25.7 µM | TGI [5]: 18.3 µM | TGI [6]: 26.6 µM

COC1CCC(=C2C(=O)OC(C)(C)OC2=O)N1 (stereo not drawn)
TGI [1]: > 100 µM | TGI [2]: > 100 µM | TGI [3]: > 100 µM | TGI [4]: > 100 µM | TGI [5]: > 100 µM | TGI [6]: > 100 µM

COc1ccc(CN(O)C2C(CO)OC(n3cc(I)c(=O)[nH]c3=O)C2O)cc1 (stereo not drawn)
TGI [2]: > 100 µM | TGI [3]: > 100 µM | TGI [4]: > 100 µM | TGI [5]: > 100 µM | TGI [6]: > 100 µM

Cc1cc2c(-c3nc4ccccc4[nH]3)c(O)c(O)cc2c(O)c1-c1c(C)cc2c(-c3nc4ccccc4[nH]3)c(O)c(O)cc2c1O
GI50 [1]: 0.0563 µM | TGI [1]: 0.827 µM | GI50 [2]: 0.0976 µM | TGI [2]: 15.8 µM | GI50 [7]: 0.0187 µM | TGI [7]: > 34.4 µM | GI50 [3]: 0.0362 µM | TGI [3]: 8.65 µM | GI50 [8]: 0.0629 µM | TGI [8]: > 50 µM | GI50 [4]: 0.08 µM | TGI [4]: > 50 µM | GI50 [9]: 0.0168 µM | TGI [9]: 0.741 µM | GI50 [5]: 0.0389 µM | TGI [5]: 2.11 µM | GI50 [6]: 0.0231 µM | TGI [6]: 0.913 µM

N#Cc1c(N)nn(C(=O)c2ccc(NC(=O)c3ccccn3)cc2)c1-c1ccc(Cl)cc1
GI50 [1]: 3.08 µM | TGI [1]: 31 µM | GI50 [2]: 5.68 µM | TGI [2]: > 100 µM | GI50 [7]: 3.58 µM | TGI [7]: > 100 µM | GI50 [3]: 3.68 µM | TGI [3]: > 100 µM | GI50 [8]: 2.89 µM | TGI [8]: > 100 µM | GI50 [4]: 5.52 µM | TGI [4]: > 100 µM | GI50 [9]: 2.79 µM | TGI [9]: 9.15 µM | GI50 [5]: 1.86 µM | TGI [5]: 4.07 µM | GI50 [10]: 4.09 µM | TGI [10]: > 100 µM

N/C(=N\N=C\c1ccc2c(c1)OCO2)NO
TGI [1]: 40.8 µM | TGI [2]: > 100 µM | TGI [7]: > 100 µM | TGI [3]: > 100 µM | TGI [8]: > 100 µM | TGI [4]: 32.5 µM | TGI [9]: > 100 µM | TGI [6]: 40.3 µM | TGI [10]: 23.1 µM

C=CCCc1cc(OC)ccc1CN(C)C(C)(C)CO
TGI [2]: > 100 µM | TGI [5]: > 100 µM | TGI [6]: > 100 µM

COc1ccc(NC(=O)CC/C(CC(=O)c2ccco2)=N/Nc2ccc([N+](=O)[O-])cc2[N+](=O)[O-])cc1
TGI [1]: > 100 µM | TGI [2]: > 100 µM | TGI [3]: > 100 µM | TGI [4]: > 100 µM | TGI [5]: > 100 µM | TGI [6]: > 100 µM

COc1ccc(C(=O)/C=C/c2ccc(Cl)cc2)cc1S(N)(=O)=O
GI50 [1]: 3.66 µM | TGI [1]: 14.8 µM | GI50 [2]: 3.24 µM | TGI [2]: 12.7 µM | GI50 [7]: 2.24 µM | TGI [7]: 5.24 µM | GI50 [3]: 1.78 µM | TGI [3]: 3.65 µM | GI50 [8]: 3.28 µM | TGI [8]: 18.4 µM | GI50 [4]: 2.13 µM | TGI [4]: 5.68 µM | GI50 [9]: 3.2 µM | TGI [9]: 14.4 µM | GI50 [6]: 2.03 µM | TGI [6]: 4.84 µM | GI50 [10]: 3.64 µM | TGI [10]: 24 µM

COc1ccc([C@H]2c3cc(OC)c(OC)cc3C=C(C=O)C2CO)cc1OC (stereo partly drawn)
GI50 [1]: > 100 µM | TGI [1]: > 100 µM | GI50 [2]: 6.62 µM | TGI [2]: > 100 µM | GI50 [3]: 12.1 µM | TGI [3]: 76.3 µM | GI50 [8]: 2.72 µM | TGI [8]: 17.3 µM | GI50 [4]: 4.41 µM | TGI [4]: > 100 µM | GI50 [6]: 3.91 µM | TGI [6]: 17.9 µM | GI50 [10]: 23.1 µM | TGI [10]: > 100 µM

CC(=O)Oc1c(-c2ccccc2)[nH]c2cc([N+](=O)[O-])c(/C(Cl)=C/c3ccccc3)cc12
TGI [1]: 18.1 µM | TGI [2]: 25.2 µM | TGI [4]: 23.1 µM | TGI [5]: > 100 µM | TGI [6]: 19.6 µM

CC(=O)O[C@@H]1C=CC(=O)C2(CC(=O)O[C@@H]2/C=C(\C)CCC=C(C)C)C1 (stereo partly drawn)
GI50 [1]: 0.623 µM | TGI [1]: 4.77 µM | GI50 [2]: 2.15 µM | TGI [2]: 7.79 µM | GI50 [7]: 0.383 µM | TGI [7]: 1.19 µM | GI50 [3]: 0.601 µM | TGI [3]: 1.99 µM | GI50 [8]: 2.54 µM | TGI [8]: > 23.4 µM | GI50 [9]: 0.389 µM | TGI [9]: 0.873 µM | GI50 [5]: 1.33 µM | TGI [5]: 2.83 µM | GI50 [6]: 2.24 µM | TGI [6]: 10.3 µM | GI50 [10]: 0.223 µM | TGI [10]: 0.827 µM

CN(C)C1(C#N)CCC2(CC1)OCCO2
TGI [1]: > 100 µM | TGI [2]: > 100 µM | TGI [3]: > 100 µM | TGI [4]: > 100 µM | TGI [5]: > 100 µM | TGI [6]: > 100 µM

CC(C)NC(=O)OCc1nnn2c1C(OC(=O)NC(C)C)CC2 (stereo not drawn)
TGI [1]: > 100 µM | TGI [2]: > 100 µM | TGI [3]: > 100 µM | TGI [4]: > 100 µM | TGI [5]: > 100 µM | TGI [6]: > 100 µM

CC(=O)NC1(C)CCC(C(C)(C)NC(C)=O)CC1 (stereo not drawn)
TGI [1]: > 100 µM | TGI [2]: > 100 µM | TGI [7]: > 100 µM | TGI [3]: > 100 µM | TGI [8]: > 100 µM | TGI [4]: > 100 µM | TGI [5]: > 100 µM | TGI [6]: > 100 µM | TGI [10]: > 100 µM

Cc1c2c(n3c(nc4ccccc43)c1C#N)SCC2
TGI [1]: > 10 µM | TGI [2]: > 10 µM | TGI [7]: > 10 µM | TGI [8]: > 10 µM | TGI [4]: > 10 µM | TGI [9]: > 10 µM | TGI [5]: > 10 µM | TGI [10]: > 10 µM

O=C1CCCC1C(=O)Nc1ccc2ccccc2c1 (stereo not drawn)
TGI [1]: > 100 µM | TGI [2]: > 100 µM | TGI [7]: > 100 µM | TGI [3]: > 100 µM | TGI [4]: > 100 µM | TGI [9]: > 100 µM | TGI [5]: > 100 µM | TGI [6]: > 100 µM | TGI [10]: > 100 µM

COC(=O)C1=C(O)C(O)=C(C(=O)OC)CC1
TGI [1]: > 100 µM | TGI [2]: > 100 µM | TGI [3]: > 100 µM | TGI [4]: > 100 µM | TGI [5]: > 100 µM | TGI [6]: > 100 µM

C=C1C(=O)OC2C1C(OC(=O)/C(=C/C)COC(C)=O)CC1(CO1)C1C(OC(=O)/C(=C/C)CO)C=C(C)C21 (stereo not drawn)
TGI [1]: 4.18 µM | TGI [2]: 4.16 µM | TGI [3]: 3.39 µM | TGI [4]: 3.86 µM | TGI [5]: 15.6 µM | TGI [6]: 2.3 µM

CN1CCC(O)C(CNC23CC4CC(CC(C4)C2)C3)C1 (stereo not drawn)
TGI [1]: > 100 µM | TGI [6]: > 100 µM

CC(=O)OC1COC(N2C(=O)C(=O)c3c(C)cc(Cl)nc32)C(OC(C)=O)C1OC(C)=O (stereo not drawn)
TGI [1]: > 100 µM | TGI [2]: > 100 µM | TGI [4]: > 100 µM | TGI [5]: > 100 µM | TGI [6]: > 100 µM

O=C(c1ccccc1)c1nnn(Cc2cccc(Cl)c2)c1C(=O)c1ccccc1
TGI [1]: > 100 µM | TGI [2]: > 100 µM | TGI [3]: > 100 µM | TGI [4]: > 100 µM | TGI [5]: > 100 µM | TGI [6]: 38.8 µM

CCCCN(CCCC)C(=Nc1ccccc1)N(CCCC)CCCC
TGI [2]: 11.8 µM | TGI [3]: 15.4 µM | TGI [5]: 37.7 µM | TGI [6]: 14 µM

N#Cc1c([N+](=O)[O-])cc(C(F)(F)F)cc1[N+](=O)[O-]
TGI [1]: 37.3 µM | TGI [2]: 21.2 µM | TGI [4]: 17.1 µM | TGI [5]: 20.1 µM | TGI [6]: 14.8 µM
